Experiments:
[1] = Pharmacokinetics after single intravenous injection; format: in vivo; details: cynomolgus monkeys, 3, 30 or 100 mg/kg intravenously
Procedure: To evaluate the pharmacokinetics of the anti-IGF-IR antibodies, cynomolgus monkeys were injected intravenously with 3, 30 or 100 mg/kg of 2.13.2 antibody in an acetate buffer. Serum was collected from the monkeys at various time points and anti-IGF-IR antibody concentrations in the monkeys were determined for a period of up to ten weeks levels. To quantitate functional serum antibody levels, the extracellular domain of the human IGF-IR (IGF-I-sR, R&D Systems, Catalog # 391GR) was bound to 96-well plates. Monkey serum (diluted between 1:100 and 1:15,000) was added to the assay plates so that each sample would be within the linear range of the standard curve and incubated under conditions in which any anti-IGF-IR antibody would bind to IGF-I-sR. After washing the plates, a labeled anti-human IgG antibody was added to the plates and incubated under conditions in which the anti-human IgG antibody would bind to the anti-IGF-IR antibody. The plates were then washed and developed, and a control standard curve and linear regression fits used to quantitate the amount of anti-IGF-IR antibodies.

[2] = target: IGF-IR (Homo sapiens, UniProt P08069); test: IGF-IR levels in 3T3/IGF-IR tumors by western blot after antibody and/or adriamycin; format: in vivo, nude mice; set-up: expressed in transfected cells; host or cells: NIH-3T3 (mouse fibroblasts)
Procedure: Tumors were induced in nude mice as described in Example IX. Mice with established subcutaneous tumors of approximately 400 mm^3 were treated with a single injection of 250 μg 2.13.2 antibody (i.p.) or with 7.5 mg/kg adriamycin (i.v.), either as single agents or in combination, as described in Example IX. 72 hours after administration of the agents, tumors were extracted as described in Example VIII, and equal amounts of the tumor extracts were subjected to sodium […] polyacrylamide gel electrophoresis (SDS PAGE) and western blot analysis using the anti-IGF-IR antibody SC-713 (Santa Cruz). […] Each lane represents equal amounts of protein from individual tumors from individual mice.

[3] = target: T1, extracellular domain of IGF-IR (Homo sapiens, UniProt P08069); test: BIAcore affinity measurement, Protocol 1; format: binding; details: BIAcore 3000; antibody captured on protein-A, IGF-IR extracellular domain injected
T1 construct: Different concentrations of the extracellular domain of IGF-IR were injected on the sensorchip
Procedure: We performed affinity measures of purified antibodies by surface plasmon resonance using the BIAcore 3000 instrument, following the manufacturer's protocols.
To perform kinetic analyses, protein-A was immobilized on the sensorchip surfaces of the BIAcore. The sensorchip was then used to capture the anti-IGF-IR antibodies of the present invention. Different concentrations of the extracellular domain of IGF-IR were injected on the sensorchip and the binding and dissociation kinetics of the interactions between the anti-IGF-IR antibodies and the extracellular domain of IGF-IR were analyzed. The data were evaluated with global fit Langmuir 1:1, using baseline drift models available on the BIAevaluation software provided by BIAcore.

[4] = tested on: MCF-7 tumors; test: Growth inhibition of breast cancer cell tumors; format: in vivo, nude mice
Procedure: Nude mice as described in Example VIII were implanted with biodegradable estrogen pellets (0.72 mg 17-β-estradiol/pellet, 60 day release; Innovative Research of America). After 48 hours, tumors were induced in nude mice essentially as described in Example IX except that MCF-7 cells (ATCC HTB-22) were used. MCF-7 cells are estrogen-dependent human breast carcinoma cells. Mice with established subcutaneous tumors of approximately 250 mm^3 were treated with 50 μg 2.13.2 antibody (i.p.) on days 1, 4, 7, 10, 13, 16, 19 and 22 […] or with 6.25 mg/kg taxol (i.p.) on days 1, 2, 3, 4, 5 (q1dx5), either as single agents or in combination, essentially as described in Example IX.
Mice having established tumors from MCF-7 cells as described immediately above were treated on day 1 with various amounts of 2.13.2 antibody (i.p.) alone or with 3.75 mg/kg adriamycin (i.v.), essentially as described in Example IX.
Mice having established tumors from MCF-7 cells as described immediately above were treated with 250 μg 2.13.2 antibody (i.p.) on days 1, 8, 15 and 23 or with a biodegradable tamoxifen pellet (25 mg/pellet, free base, 60 day release, Innovative Research of America), either as single agents or in combination, essentially as described in Example IX. The tamoxifen pellet was implanted on day 1 after the tumor was established.

[5] = tested on: Colo 205 tumors; test: Growth inhibition of colorectal cell tumors; format: in vivo, nude mice
Procedure: Tumors were induced in nude mice as described in Example IX except that Colo 205 cells (ATCC CCL 222) were used. Colo 205 cells are human colorectal adenocarcinoma cells. Mice with established subcutaneous tumors of approximately 250 mm^3 were treated with various amounts of 2.13.2 antibody (i.p.) or with 100 mg/kg […] (5-FU, i.v.), either as single agents or in combination, as described in Example IX. […] Mice with established Colo 205 tumors were treated on days 1, 8, 15 and 22 with 500 μg 2.13.2 (i.p.), 100 mg/kg 5-FU (i.v.) or a combination thereof.

- IGF-IR levels in tumors, adriamycin and antibody together ([2]; 72 hours after 250 μg 2.13.2 i.p. plus 7.5 mg/kg adriamycin i.v.): dramatic decrease in IGF-IR levels
- IGF-IR levels in tumors, single agent ([2]; 72 hours after single 250 μg 2.13.2 i.p. or 7.5 mg/kg adriamycin i.v.): some decrease in IGF-IR levels
- Kd [3]: 3.5 nM
Substance: 2.13.2: human IgG2κ monoclonal antibody specific for IGF-IR from hybridoma 2.13.2 (ATCC PTA-2788)
- dose proportionality of serum amounts [1]: dose-proportional
- volume distribution [1]: 74 to 105 mL/kg
- effect on effectiveness of taxol ([4]; 50 μg i.p. once every three days with 6.25 mg/kg taxol i.p. q1dx5): enhances the effectiveness of taxol
- MCF-7 tumor growth ([4]; 50 μg i.p. once every three days, by itself): inhibits human breast cancer cell growth
- MCF-7 tumor growth ([4]; 250 μg i.p. on days 1, 8, 15 and 23, by itself): inhibits human breast cancer growth
- effect on effectiveness of tamoxifen ([4]; 250 μg i.p. on days 1, 8, 15 and 23 with tamoxifen pellet 25 mg): enhances the effectiveness of tamoxifen
- MCF-7 tumor growth ([4]; single treatment i.p. on day 1, by itself): inhibits human breast cancer cell growth
- effect on effectiveness of adriamycin ([4]; single treatment on day 1 with 3.75 mg/kg adriamycin i.v.): enhances the effectiveness of adriamycin
- Colo 205 tumor growth ([5]; 500 μg i.p. on days 1, 8, 15 and 22): inhibits human colorectal cancer cell growth
- effect on effectiveness of 5-FU ([5]; 500 μg i.p. on days 1, 8, 15 and 22 with 100 mg/kg 5-FU i.v.): enhances the effectiveness of 5-FU
- effect on effectiveness of 5-FU ([5]; antibody given once with 100 mg/kg 5-FU i.v.): enhances the effectiveness of 5-FU
- Colo 205 tumor growth ([5]; antibody i.p. given once, single agent): inhibits human colorectal cancer cell growth

Source: US7815907B2, “Antibodies to insulin-like growth factor I receptor” (Amgen Fremont Inc., priority 2001, dated 2010)
